The values that follow come from ChEMBL document CHEMBL1152345, “Clavatadines C-E, guanidine alkaloids from the Australian sponge Suberea clavata” (J Nat Prod, 2009).

Where only a bound is given, the exact number is not on record here.

Experiment [1] has as its target Coagulation factor XI (Homo sapiens) (UniProt P03951). Put plainly: Inhibition of factor 11a at 222 uM after 10 min.
Experiment [2] has as its target Coagulation factor IX (Homo sapiens) (UniProt P00740). Put plainly: Inhibition of factor 9a at 222 uM after 10 min.

Coagulation factor XI (Homo sapiens), sequence (P03951 19-387 limits assumed): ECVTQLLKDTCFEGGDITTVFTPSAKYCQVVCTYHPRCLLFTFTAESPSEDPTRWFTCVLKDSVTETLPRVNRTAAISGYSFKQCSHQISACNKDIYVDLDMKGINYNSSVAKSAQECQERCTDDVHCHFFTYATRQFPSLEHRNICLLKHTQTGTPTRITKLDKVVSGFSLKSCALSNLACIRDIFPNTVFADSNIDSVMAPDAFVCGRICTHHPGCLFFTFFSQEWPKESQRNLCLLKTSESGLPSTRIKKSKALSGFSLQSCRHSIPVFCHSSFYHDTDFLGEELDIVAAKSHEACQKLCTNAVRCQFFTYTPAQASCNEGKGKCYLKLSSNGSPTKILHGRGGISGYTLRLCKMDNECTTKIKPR
Coagulation factor XI (Homo sapiens), sequence (P03951 388-625 limits assumed): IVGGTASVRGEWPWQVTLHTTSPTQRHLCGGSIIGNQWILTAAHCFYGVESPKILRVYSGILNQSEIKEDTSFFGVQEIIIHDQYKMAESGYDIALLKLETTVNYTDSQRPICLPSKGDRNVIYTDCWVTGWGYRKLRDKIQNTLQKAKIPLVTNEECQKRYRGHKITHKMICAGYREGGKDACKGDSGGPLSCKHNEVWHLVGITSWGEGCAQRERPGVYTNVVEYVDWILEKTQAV
Coagulation factor IX (Homo sapiens), sequence (P00740 47-191 limits assumed): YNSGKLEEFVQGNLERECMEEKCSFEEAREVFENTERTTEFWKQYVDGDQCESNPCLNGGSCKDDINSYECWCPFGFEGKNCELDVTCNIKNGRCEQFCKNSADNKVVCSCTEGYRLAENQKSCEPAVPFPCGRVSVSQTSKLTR
Coagulation factor IX (Homo sapiens), sequence (P00740 227-461 limits assumed): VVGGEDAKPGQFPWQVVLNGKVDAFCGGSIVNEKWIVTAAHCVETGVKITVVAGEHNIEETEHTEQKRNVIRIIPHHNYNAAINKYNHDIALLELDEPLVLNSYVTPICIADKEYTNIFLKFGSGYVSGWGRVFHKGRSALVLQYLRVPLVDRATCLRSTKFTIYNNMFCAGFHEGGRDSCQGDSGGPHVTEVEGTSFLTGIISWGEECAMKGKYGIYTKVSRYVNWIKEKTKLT

By inhibition is commonly meant the share of the control response that was lost under treatment. A lower inhibition goes with a weak effect. For `COC1=C(Br)[C@@H](O)[C@]2(C=C1Br)CC(C(=O)NCCc1cnc[nH]1)=NO2`, the inhibition in experiment [1] is 59%; in experiment [2] it was < 5%.

For the molecule `N=C(N)NCCCCNC(=O)C1=NOC2(C=C(Br)C(=O)C(Br)=C2)C1`, the inhibition is 17% in experiment [1] and < 5% in experiment [2].

`COC1=C(Br)[C@H](O)[C@@]2(C=C1Br)CC(C(=O)NCCCCCNC(=N)N)=NO2`: the inhibition in experiment [1] was 30%; in experiment [2], < 5%.

On to `N=C(N)NCCCCCNC(=O)C1=NOC2(C=C(Br)C(=O)C(Br)=C2)C1`, for which the inhibition is 30% in experiment [1] and < 5% in experiment [2].

For the molecule `N=C(N)NCCCCNC(=O)/C(Cc1ccc(O)c(Br)c1)=N/O`, the inhibition is 37% in experiment [1] and < 5% in experiment [2].

For the molecule `COC1=C(Br)[C@H](O)[C@@]2(C=C1Br)CC(C(=O)NCCCCNC(=N)N)=NO2`, the inhibition was 12% in experiment [1] and < 5% in experiment [2].
